# Source: patent US20240245658A1, “TAAR1 AND SEROTONIN MODULATORS, AND PHARMACEUTICAL COMPOSITIONS, AND METHODS OF USE THEREOF” (Sunovion Pharmaceuticals Inc., priority 2021, published 2024)
# Biological target: T1, human TAAR1 receptors (Homo sapiens, UniProt Q96RJ0)
# T1 construct: host or cells: CHO-K1
# T1 sequence (Q96RJ0 1-339): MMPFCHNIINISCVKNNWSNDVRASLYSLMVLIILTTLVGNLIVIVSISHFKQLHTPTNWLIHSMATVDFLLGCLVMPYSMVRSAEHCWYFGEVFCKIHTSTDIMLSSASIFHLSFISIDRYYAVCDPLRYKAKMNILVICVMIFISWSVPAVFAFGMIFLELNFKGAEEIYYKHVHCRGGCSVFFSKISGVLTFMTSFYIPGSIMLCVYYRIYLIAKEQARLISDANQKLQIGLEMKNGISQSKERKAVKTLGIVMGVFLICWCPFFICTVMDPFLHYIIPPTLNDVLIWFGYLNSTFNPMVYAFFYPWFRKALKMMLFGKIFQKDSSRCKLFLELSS
# Test: TAAR1 Agonism Assay: cAMP HTRF assay for Gs coupled receptor TAAR1 (Euroscreen FAST-0987C)
# Format: cell-based
# Conditions: CHO-K1 cells expressing human TAAR1, cAMP HTRF
# Experimental: Dose response curves were performed in parallel with the reference compound, tyramine.
# For the TAAR1 agonist test (performed in a 384 well plate): 5 μl of cells (about 3,000 cells) were mixed with 5 μl of the test compound diluted in assay buffer and then incubated for about 30 minutes at about room temperature. After addition of the lysis buffer containing cAMP-d2 and anti-cAMP cryptate detection reagents, plates were incubated for about a 1-hour incubation at about room temperature, and fluorescence ratios were measured according to the manufacturer specifications, with the HTRF (Homogeneous Time Resolved Fluorescence) kit (cAMP Gs dynamic kit, Cisbio Bioassays, 62AM4PEJ).
# Compounds were tested at the following nanomolar concentrations, in duplicate: 0.3 nM, 1 nM, 3 nM, 10 nM, 30 nM, 100 nM, 300 nM, 1,000 nM, 3,000 nM, and 10,000 nM.
row,Structure (SMILES),EC50 [µM]
1,"CNCC1Cc2ncccc2Oc2cc(F)ccc21 (single isomer, unassigned) [Compound 33, (R*)-1-(7-fluoro-10,11-dihydrobenzo[6,7]oxepino[3,2-b]pyridin-10-yl)-N-methylmethanamine]",> 10
2,"CNCC1Cc2ncccc2Oc2cc(F)ccc21 (single isomer, unassigned) [Compound 34, (S*)-1-(7-fluoro-10,11-dihydrobenzo[6,7]oxepino[3,2-b]pyridin-10-yl)-N-methylmethanamine]",< 1
3,"NCC1Cc2ncccc2Oc2cc(F)ccc21 (single isomer, unassigned) [Compound 35, (R*)-(7-fluoro-10,11-dihydrobenzo[6,7]oxepino[3,2-b]pyridin-10-yl)methanamine]",1 to 10
4,"CNCC1Cc2ncc(F)cc2Oc2ccccc21 (single isomer, unassigned) [Compound 37, (R*)-1-(3-fluoro-10,11-dihydrobenzo[6,7]oxepino[3,2-b]pyridin-10-yl)-N-methylmethanamine]",> 10
5,"NCC1Cc2ccc(F)cc2Oc2ccccc21 (single isomer, unassigned) [Compound 88, (R*)-(3-fluoro-10,11-dihydrodibenzo[b,f]oxepin-10-yl)methanamine]",1 to 10
6,"NCC1Cc2ccccc2Oc2ccc(F)cc21 (single isomer, unassigned) [Compound 93, (S*)-(8-fluoro-10,11-dihydrodibenzo[b,f]oxepin-10-yl)methanamine]",1 to 10
7,"NCC1Cc2cc(F)ccc2Oc2ccccc21 (single isomer, unassigned) [Compound 97, (S*)-(2-fluoro-10,11-dihydrodibenzo[b,f]oxepin-10-yl)methanamine]",> 10
8,"CNCC1Cc2cc(F)ccc2Oc2ccccc21 (single isomer, unassigned) [Compound 99, (S*)-(2-fluoro-10,11-dihydrodibenzo[b,f]oxepin-10-yl)-N-methylmethanamine]",> 10
9,"CNCC1Cc2ccccc2Oc2c(F)cccc21 (single isomer, unassigned) [Compound 103, (S*)-(6-fluoro-10,11-dihydrodibenzo[b,f]oxepin-10-yl)-N-methylmethanamine]",1 to 10
10,"CCNCC1Cc2ccccc2Oc2cccnc21 (single isomer, unassigned) [Compound 108, (S*)-1-(10,11-dihydrobenzo[6,7]oxepino[3,2-b]pyridin-11-yl)-N-ethylmethanamine]",< 1
11,"CN(C)CC1Cc2ccccc2Oc2cccnc21 (single isomer, unassigned) [Compound 110, (S*)-1-(10,11-dihydrobenzo[6,7]oxepino[3,2-b]pyridin-11-yl)-N,N-dimethylmethanamine]",> 10
12,"CNCC1Cc2c(F)cccc2Oc2cccnc21 (single isomer, unassigned) [Compound 139, (R*)-1-(9-fluoro-10,11-dihydrobenzo[6,7]oxepino[3,2-b]pyridin-11-yl)-N-methylmethanamine]",1 to 10
13,"CNCC1Cc2c(C)cccc2Oc2cccnc21 (single isomer, unassigned) [Compound 142, (S*)-(9-methyl-10,11-dihydrobenzo[6,7]oxepino[3,2-b]pyridin-11-yl)-N-methylmethanamine]",1 to 10
14,"CNCC1Cc2c(Cl)cccc2Oc2cccnc21 (single isomer, unassigned) [Compound 146, (S*)-(9-chloro-10,11-dihydrobenzo[6,7]oxepino[3,2-b]pyridin-11-yl)-N-methylmethanamine]",> 10
15,"NCC1Cc2cc(Br)ccc2Oc2cccnc21 (single isomer, unassigned) [Compound 148, (R*)-(8-bromo-10,11-dihydrobenzo[6,7]oxepino[3,2-b]pyridin-11-yl)methanamine]",< 1
16,"NCC1Cc2ncccc2Oc2cccc(F)c21 (single isomer, unassigned) [Compound 155, (R*)-(9-fluoro-10,11-dihydrobenzo[6,7]oxepino[3,2-b]pyridin-10-yl)methanamine]",1 to 10
